For twelve compounds, IC50 results are on record in US10351530B2, “Arylcyclohexyl pyrazoles as NRF2 regulators” (GlaxoSmithKline Intellectual Property Development Limited, priority 2015, dated 2019).

Structures are written as SMILES.

The target in assay [1] is T1, NRF2/Keap1 (Homo sapiens, UniProt Q14145).
T1 construct: full length NRF2 protein and full length Keap1 protein (Keap1 exists a dimer) are used
Kind of assay: NRF2-Keap1 TR-FRET Assay (full length NRF2 and full length Keap1). The assay is classed as binding. Conditions: 25 nM Keap1-FlagHis, 50 nM biotin-NRF2 added. An excerpt: In the NRF2-Keap1 TR-FRET (time-resolved fluorescence resonance energy transfer) assay, full length NRF2 protein and full length Keap1 protein (Keap1 exists a dimer) are used. The assay detects the ability of compound to displace the binding of FlagHis-tagged Keap1 with biotinylated, Avi-tagged NRF2 protein. Biotin-NRF2 binds to streptavidin-europium (a component of the detection mix) and Keap1-FlagHis is recognized by anti-Flag APC (allophycocyanin) antibody (also a component of the detection mix). If binding occurs between the two proteins, there will be an energy transfer from the Eu+3 (donor) at 615 nm to the APC (acceptor) at 665 nm. A potential Keap1 inhibitor will cause a reduction in the TR-FRET signal by interfering with the binding of Keap1 to NRF2.
One hundred nanoliters of 100× compound dose response curves (serial 3-fold dilutions) in DMSO are stamped using an Echo liquid handling system (Labcyte) into 384-well, low volume, black assay plates (Greiner, #784076), with DMSO in columns 6 and 18. The top concentration of compound is located in columns 1 and 13. All reagents are diluted in assay buffer (50 mM Tris, pH 8.0, 5 mM MgCl2, 100 mM NaCl, 0.005% BSA, 1 mM DTT, and 2 mM CHAPS). The BSA, DTT, and CHAPS are added to the assay buffer on the day of assay. Using a Multidrop Combi (Thermo Electron Corporation) equipped with a metal tip dispenser, 5 ul of 25 nM Keap1-FlagHis protein is added to all wells of the compound plate, with the exception of the wells in column 18. Wells in column 18 receive 5 ul of assay buffer instead. Plates are centrifuged at 500 rpm for 1 minute, covered with a plate lid, and incubated at 37° C. for 2.25 hours. Plates are then removed from the incubator and allowed to cool to RT for 15 minutes. Five microliters of 50 nM biotin-NRF2 protein is then added to all wells of the plates and the plates are spun at 500 rpm for 1 minute, followed by incubating at 4° C. for 1.25 hours. The plates are then allowed to warm to RT for 15 minutes, followed by the addition of 10 ul of detection mix (1 nM Streptavidin Eu+ W1024 and 5 ug/ml mouse anti-DYKDDDDK IgG conjugated to SureLight APC antibody; both from Columbia Biosciences) to all wells. Plates are spun at 500 rpm for 1 minute, incubated for 1 hour at RT, and read on an Envision plate reader using a 320 nm excitation filter and 615 nm and 665 nm emission filters. Compound response (% inhibition) and potency (pIC50) are calculated based on the ratio of the two emissions (665 nm/615 nm) and then the transformed data is normalized against controls in the assay (control 1=1% DMSO in the presence of NRF2 and Keap1 protein and control 2=1% DMSO in the absence of protein). Data analysis is handled using the software package Abase XE (Surrey, United Kingdom). The % inhibition values are calculated from the ratio (transformed) data by the equation: 100−(100*(compound response-average control 2)/(average control 1−average control 2)).
For calculation of pIC50s, Abase XE uses a four parameter equation.
(In general: In TR-FRET formats the signal depends on donor and acceptor labels being close together.)

Assay [2] deals with T1, NRF2/Keap1. Put plainly: NRF2-Keap1 TR-FRET Low Protein Assay (full length NRF2 and full length Keap1). The assay is classed as binding. Conditions: low protein: 1.25 nM Keap1 FlagHis, 2.5 nM biotin-NRF2 added. An excerpt:
In the NRF2-Keap1 TR-FRET (time-resolved fluorescence resonance energy transfer) low protein assay, full length NRF2 protein and full length Keap1 protein (Keap1 exists a dimer) are used. The assay detects a compound's ability to displace the binding of Keap1 FlagHis with biotinylated Avi-NRF2 protein. Biotin-NRF2 binds to streptavidin-europium (a component of the detection mix) and Keap1 FlagHis is recognized by anti-Flag APC (allophycocyanin) antibody (also a component of the detection mix). If binding occurs between the two proteins, there will be an energy transfer from the Eu+3 (donor) at 615 nm to the APC (acceptor) at 665 nm. A potential NRF2 inhibitor will cause a reduction in the TR-FRET signal by interfering with the binding of Keap1 to NRF2.
Ten nanoliters of 100× compound dose response curves (serial 3-fold dilutions) in DMSO are stamped using an Echo liquid handling system (Labcyte) into 384-well, low volume, black assay plates (Greiner, #784076), with DMSO in columns 6 and 18. An additional 90 nl DMSO is added to each well, to bring the total volume to 100 nl per well. The top concentration of compound is located in columns 1 and 13, with the serial dilutions going across the row. All reagents are diluted in assay buffer (50 mM Tris, pH 8.0, 5 mM MgCl2, 100 mM NaCl, 0.005% BSA, 1 mM DTT, and 2 mM CHAPS. The BSA, DTT, and CHAPS are added to the assay buffer on the day of assay. Using a Multidrop Combi (Thermo Electron Corporation) equipped with a metal tip dispenser, 5 ul of 1.25 nM Keap1 FlagHis protein is added to all wells of the compound plate, with the exception of the wells in column 18. Wells in column 18 receive 5 ul of assay buffer instead. Plates are centrifuged at 500 rpm for 1 minute, covered with a plate lid, and incubated at 37° C. for 2.25 hours. Plates are then removed from the incubator and allowed to cool to RT for 15 minutes. Five microliters of 2.5 nM biotin-NRF2 protein is then added to all wells of the plates and the plates are spun at 500 rpm for 1 minute, followed by incubating at 4° C. for 1.25 hours. The plates are then allowed to warm to RT for 15 minutes, followed by the addition of 10 ul of detection mix (1 nM Streptavidin Eu+ W1024 and 5 ug/ml mouse anti-DYKDDDDK IgG conjugated to SureLight APC antibody; both from Columbia Biosciences) to all wells. Plates are spun at 500 rpm for 1 minute, incubated for 1 hour at RT, and read on an Envision plate reader using a 320 nm excitation filter and 615 nm and 665 nm emission filters. Compound response (% inhibition) and potency (pIC50) are calculated based on the ratio of the two emissions (665 nm/615 nm) and then the transformed data is normalized against controls in the assay (control 1=1% DMSO in the presence of NRF2 and Keap1 protein and control 2=1% DMSO in the presence of only the NRF2 protein). Data analysis is handled using the software package Abase XE (Surrey, United Kingdom). The % inhibition values are calculated from the ratio (transformed) data by the equation: 100−(100*(compound response-average control 2)/(average control 1−average control 2)). For calculation of pIC50s, Abase XE uses a four parameter equation.

T1 sequence (Q14145 whole entry): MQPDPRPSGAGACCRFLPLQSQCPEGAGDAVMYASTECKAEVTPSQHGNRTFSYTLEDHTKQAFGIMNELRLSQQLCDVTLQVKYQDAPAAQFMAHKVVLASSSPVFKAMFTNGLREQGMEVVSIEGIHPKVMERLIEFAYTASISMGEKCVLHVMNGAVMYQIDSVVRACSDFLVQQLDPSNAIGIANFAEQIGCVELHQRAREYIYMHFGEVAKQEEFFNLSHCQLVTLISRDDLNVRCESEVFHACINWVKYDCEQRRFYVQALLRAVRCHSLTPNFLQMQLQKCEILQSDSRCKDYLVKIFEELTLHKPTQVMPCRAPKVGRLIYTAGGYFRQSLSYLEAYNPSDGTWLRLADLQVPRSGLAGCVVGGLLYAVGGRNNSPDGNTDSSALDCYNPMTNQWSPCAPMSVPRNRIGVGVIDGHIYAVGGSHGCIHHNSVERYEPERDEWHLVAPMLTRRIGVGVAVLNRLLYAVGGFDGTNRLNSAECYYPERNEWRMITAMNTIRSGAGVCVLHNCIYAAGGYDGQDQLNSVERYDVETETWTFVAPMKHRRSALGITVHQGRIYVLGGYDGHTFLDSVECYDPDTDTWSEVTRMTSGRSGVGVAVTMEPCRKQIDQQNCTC

Broadly, the IC50 is the midpoint of a concentration-inhibition curve. The low end stands for higher potency, the high end for lower potency. With `CCCCC1CCCN1C(=O)C1CCCC(c2cccc(-n3ncc(C(=O)O)c3C3CC3)c2)C1` (racemic) [Example 8c, 1-{3-[3-(2-Butylpyrrolidine-1-carbonyl)cyclohexyl]phenyl}-5-cyclopropyl-1H-pyrazole-4-carboxylic Acid], the results for the IC50 at NRF2/Keap1 [1] and at NRF2/Keap1 [2] were 100 to 1000 nM and 10 to 100 nM, respectively.
The matching figures for `CC(C)CCC1CCCN1C(=O)C1CCCC(c2cccc(-n3ncc(C(=O)O)c3C3CC3)c2)C1` (racemic) [Example 11, 5-Cyclopropyl-1-(3-{3-[2-(3-methylbutyl)pyrrolidine-1-carbonyl]cyclohexyl}phenyl)-1H-pyrazole-4-carboxylic Acid]: 100 to 1000 nM and 10 to 100 nM.
`O=C(O)c1cnn(-c2cccc(C3CCCC(C(=O)N4CCCC4C4CC4)C3)c2)c1C1CC1` (racemic) [Example 12, 5-cyclopropyl-1-{3-[3-(2-cyclopropylpyrrolidine-1-carbonyl)cyclohexyl]phenyl}-1H-pyrazole-4-carboxylic Acid]: the values for the IC50 at NRF2/Keap1 [1] and against NRF2/Keap1 [2] were 100 to 1000 nM and 10 to 100 nM, respectively.
As for `CC1(C)CCc2cnn([C@@H]3CCC[C@@H](c4cccc(-n5ncc(C(=O)O)c5C5CC5)c4)C3)c21` (racemic) [Example 23, 5-Cyclopropyl-1-(3-(t-3-(6,6-dimethyl-5,6-dihydrocyclopenta[c]pyrazol-1(4H)-yl)cyclohexyl)phenyl)-1H-pyrazole-4-carboxylic Acid], the half-maximal inhibitory concentration (IC50) lay within 10000 to 100000 nM against NRF2/Keap1 [1] and 1000 to 10000 nM against NRF2/Keap1 [2].
The corresponding values for `CCOC[C@@H]1CCCN1C(=O)C1CCCC(c2cccc(-n3ncc(C(=O)O)c3C3CC3)c2)C1` (single isomer, unassigned) [Example 18g] are 10 to 100 nM and less than 10 nM.
On to `CCCC[C@@H]1CCCN1C(=O)[C@H]1CCC[C@@H](c2cccc(-n3ncc(C(=O)O)c3C3CC3)c2)C1` [Example 17f, 1-{3-[(1R,3S)-3-[(2R)-2-Butylpyrrolidine-1-carbonyl]cyclohexyl]phenyl}-5-cyclopropyl-1H-pyrazole-4-carboxylic Acid], for which the IC50 was 10 to 100 nM against NRF2/Keap1 [1] and less than 10 nM against NRF2/Keap1 [2].
Consider `O=C(O)c1cnn(-c2cccc(C3=CC(C(=O)N4CCCCCC4)CCC3)c2)c1C1CC1` (stereo not drawn) [Example 19, 1-(5′-(Azepane-1-carbonyl)-2′,3′,4′,5′-tetrahydro-[1,1′-biphenyl]-3-yl)-5-cyclopropyl-1H-pyrazole-4-carboxylic Acid], for which the IC50 lay within 1000 to 10000 nM at NRF2/Keap1 [1] and 100 to 1000 nM against NRF2/Keap1 [2].
The matching figures for `CCCCC1CCc2cnn([C@@H]3CCC[C@@H](c4cccc(-n5ncc(C(=O)O)c5C5CC5)c4)C3)c21` (stereo partly drawn) [Example 38, 1-(3-((1,3-trans)-3-(6-Butyl-5,6-dihydrocyclopenta[c]pyrazol-1(4H)-yl)cyclohexyl)phenyl)-5-cyclopropyl-1H-pyrazole-4-carboxylic Acid]: 10000 to 100000 nM and 10000 to 100000 nM.
The matching figures for `Cn1cc(C2CC2c2c(C(=O)O)cnn2-c2cccc([C@@H]3CCC[C@H](n4ncc5c4C(C)(C)CC5)C3)c2)nn1` (stereo partly drawn) [Example 39, 1-(3-((1R,3S)-3-(6,6-Dimethyl-5,6-dihydrocyclopenta[c]pyrazol-1(4H)-yl)cyclohexyl)phenyl)-5-(2-(1-methyl-1H-1,2,3-triazol-4-yl)cyclopropyl)-1H-pyrazole-4-carboxylic Acid]: 10 to 100 nM and less than 10 nM.
On to `Cn1cc(C2CC2c2c(C(=O)O)cnn2-c2cccc([C@H]3CCC[C@H](n4ncc5c4C(C)(C)CC5)C3)c2)nn1` (stereo partly drawn) [Example 40, 1-(3-((1,3-trans)-3-(6,6-Dimethyl-5,6-dihydrocyclopenta[c]pyrazol-1(4H)-yl)cyclohexyl)phenyl)-5-(2-(1-methyl-1H-1,2,3-triazol-4-yl)cyclopropyl)-1H-pyrazole-4-carboxylic Acid], for which the figures for the half-inhibitory concentration (IC50) on NRF2/Keap1 [1] and at NRF2/Keap1 [2] were 100 to 1000 nM and 10 to 100 nM, respectively.
Turning to `CCCCC1CCCC1N(C)C(=O)C1CCCC(c2cccc(-n3ncc(C(=O)O)c3C3CC3)c2)C1` (stereo not drawn) [Example 41, 1-(3-(3-((2-Butylcyclopentyl)(methyl)carbamoyl)cyclohexyl)phenyl)-5-cyclopropyl-1H-pyrazole-4-carboxylic Acid], the IC50 at NRF2/Keap1 [1] fell in the range of 1000 to 10000 nM; at NRF2/Keap1 [2], 100 to 1000 nM.
With `CCCCC1CCCN1C(=O)C1CCCC(c2cccc(-n3ncc(C(=O)O)c3C3CC3c3cn(C)nn3)c2)C1` (stereo not drawn) [Example 42, 1-(3-(3-(2-Butylpyrrolidine-1-carbonyl)cyclohexyl)phenyl)-5-(2-(1-methyl-1H-1,2,3-triazol-4-yl)cyclopropyl)-1H-pyrazole-4-carboxylic Acid], the IC50 against NRF2/Keap1 [1] is 100 to 1000 nM; against NRF2/Keap1 [2], less than 10 nM.
